# Measurements from patent US11667645B2, “Granzyme B directed imaging and therapy” (CytoSite Biopharma Inc., priority 2018, dated 2023).
# Biological target: Granzyme B (human lymphocytes) (Homo sapiens (Human), UniProt P10144)
# Assay: human Granzyme B biochemical assay
# Conditions: not given
# Method in brief: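 Enzyme (10 nM working stock, assay buffer with 0.1% BSA) pre-incubated with compound for 30 min at 22 °C, then Ac-IETD-AFC (800 µM working stock) added for 60 min at 22 °C in the dark. Fluorescence read at Ex 400/Em 505 nm; 8-point 3.16-fold series (40 µM top working stock); IC50 from % inhibition versus standard-inhibitor and DMSO controls.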
# Chain of Granzyme B (human lymphocytes) (P10144 21-247): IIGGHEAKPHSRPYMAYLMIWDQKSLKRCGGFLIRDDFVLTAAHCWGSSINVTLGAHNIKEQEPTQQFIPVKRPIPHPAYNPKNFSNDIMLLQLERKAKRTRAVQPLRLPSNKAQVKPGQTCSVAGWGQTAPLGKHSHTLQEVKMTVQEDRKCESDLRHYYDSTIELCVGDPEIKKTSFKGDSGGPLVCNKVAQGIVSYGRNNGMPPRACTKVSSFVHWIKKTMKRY
row,SMILES,IC50 [µM]
1,"CC(C)[C@H](NC(=O)CF)C(=O)N[C@H]1COc2cccc3c2N(C1=O)[C@H](C(=O)NCc1c[nH]nn1)C3 [Compound C102, (1S,8S)-8-[(S)-2-(2-Fluoro-acetylamino)-3-methyl-butyrylamino]-9-oxo-1,2,8,9-tetrahydro-7H-6-oxa-9a-aza-benzo[cd]azulene-1-carboxylic acid (1H-[1,2,3]triazol-4-ylmethyl)-amide]",0.001 to 0.3

# Same assay, conditions: Granzyme B (human lymphocytes) 5 nM, substrate Ac-IETD-AFC 200 μM, Cpd incubation with enzyme 30 mins, 22° C., read time 60 mins; read-out: IC50
row,SMILES,IC50 [µM]
1,"CC[C@H](C)[C@H](NC(=O)COCCF)C(=O)N[C@H]1CCc2cccc3c2N(C1=O)[C@H](C(=O)NCc1ccc[nH]1)C3 [Compound C104, (2S,5S)-5-{(2S,3S)-2-[2-(2-Fluoro-ethoxy)-acetylamino]-3-methyl-pentanoylamino}-4-oxo-1,2,4,5,6,7-hexahydro-azepino[3,2,1-hi]indole-2-carboxylic acid (1H-pyrrol-2-ylmethyl)-amide]",> 5
2,"CC[C@H](C)[C@H](NC(=O)COCCF)C(=O)N[C@H]1CCc2cccc3c2N(C1=O)[C@H](C(=O)NCc1cccs1)C3 [Compound C106, (2S,5S)-5-{(2S,3S)-2-[2-(2-Fluoro-ethoxy)-acetylamino]-3-methyl-pentanoylamino}-4-oxo-1,2,4,5,6,7-hexahydro-azepino[3,2,1-hi]indole-2-carboxylic acid (thiophen-2-ylmethyl)-amide]",> 5
3,"CC[C@H](C)[C@H](NC(=O)COCCF)C(=O)N[C@H]1CCc2cccc3c2N(C1=O)[C@H](C(=O)NCc1cnc[nH]1)C3 [Compound C110, (2S,5S)-5-{(2S,3S)-2-[2-(2-Fluoro-ethoxy)-acetylamino]-3-methyl-pentanoylamino}-4-oxo-1,2,4,5,6,7-hexahydro-azepino[3,2,1-hi]indole-2-carboxylic acid (3H-imidazol-4-ylmethyl)-amide]",> 5
4,"CC[C@H](C)[C@H](NC(=O)COCCF)C(=O)N[C@H]1CCc2cccc3c2N(C1=O)[C@H](C(=O)NCc1cnco1)C3 [Compound C111, (2S,5S)-5-{(2S,3S)-2-[2-(2-Fluoro-ethoxy)-acetylamino]-3-methyl-pentanoylamino}-4-oxo-1,2,4,5,6,7-hexahydro-azepino[3,2,1-hi]indole-2-carboxylic acid (oxazol-5-ylmethyl)-amide]",> 5
5,"CC[C@H](C)[C@H](NC(=O)COCCF)C(=O)N[C@H]1CCc2cccc3c2N(C1=O)[C@H](C(=O)NCc1cncs1)C3 [Compound C112, (2S,5S)-5-{(2S,3S)-2-[2-(2-Fluoro-ethoxy)-acetylamino]-3-methyl-pentanoylamino}-4-oxo-1,2,4,5,6,7-hexahydro-azepino[3,2,1-hi]indole-2-carboxylic acid (thiazol-5-ylmethyl)-amide]",> 5
6,"CC[C@H](C)[C@H](NC(=O)COCCF)C(=O)N[C@H]1CCc2cccc3c2N(C1=O)[C@H](C(=O)NCc1cocn1)C3 [Compound C114, (2S,5S)-5-{(2S,3S)-2-[2-(2-Fluoro-ethoxy)-acetylamino]-3-methyl-pentanoylamino}-4-oxo-1,2,4,5,6,7-hexahydro-azepino[3,2,1-hi]indole-2-carboxylic acid (oxazol-4-ylmethyl)-amide]",> 5
7,"CC[C@H](C)[C@H](NC(=O)COCCF)C(=O)N[C@H]1CCc2cccc3c2N(C1=O)[C@H](C(=O)NCc1cscn1)C3 [Compound C115, (2S,5S)-5-{(2S,3S)-2-[2-(2-Fluoro-ethoxy)-acetylamino]-3-methyl-pentanoylamino}-4-oxo-1,2,4,5,6,7-hexahydro-azepino[3,2,1-hi]indole-2-carboxylic acid (thiazol-4-ylmethyl)-amide]",> 5
8,"CC[C@H](C)[C@H](NC(=O)COCCF)C(=O)N[C@H]1CCc2cccc3c2N(C1=O)[C@H](C(=O)NCc1cnsc1)C3 [Compound C118, (2S,5S)-5-{(2S,3S)-2-[2-(2-Fluoro-ethoxy)-acetylamino]-3-methyl-pentanoylamino}-4-oxo-1,2,4,5,6,7-hexahydro-azepino[3,2,1-hi]indole-2-carboxylic acid (isothiazol-4-ylmethyl)-amide]",> 5
9,"CC[C@H](C)[C@H](NC(=O)COCCF)C(=O)N[C@H]1CCc2cccc3c2N(C1=O)[C@H](C(=O)NCc1nn[nH]n1)C3 [Compound C119, (2S,5S)-5-{(2S,3S)-2-[2-(2-Fluoro-ethoxy)-acetylamino]-3-methyl-pentanoylamino}-4-oxo-1,2,4,5,6,7-hexahydro-azepino[3,2,1-hi]indole-2-carboxylic acid (2H-tetrazol-5-ylmethyl)-amide]",0.001 to 0.3
10,"CC[C@H](C)[C@H](NC(=O)COCCF)C(=O)N[C@H]1CCc2cccc3c2N(C1=O)[C@H](C(=O)NCc1ccccn1)C3 [Compound C121, (2S,5S)-5-{(2S,3S)-2-[2-(2-Fluoro-ethoxy)-acetylamino]-3-methyl-pentanoylamino}-4-oxo-1,2,4,5,6,7-hexahydro-azepino[3,2,1-hi]indole-2-carboxylic acid (pyridin-2-ylmethyl)-amide]",> 5
11,"CC[C@H](C)[C@H](NC(=O)COCCF)C(=O)N[C@H]1CCc2cccc3c2N(C1=O)[C@H](C(=O)NCc1ccncc1)C3 [Compound C123, (2S,5S)-5-{(2S,3S)-2-[2-(2-Fluoro-ethoxy)-acetylamino]-3-methyl-pentanoylamino}-4-oxo-1,2,4,5,6,7-hexahydro-azepino[3,2,1-hi]indole-2-carboxylic acid (pyridin-4-ylmethyl)-amide]",> 5
12,"CC[C@H](C)[C@H](NC(=O)COCCF)C(=O)N[C@H]1CCc2cccc3c2N(C1=O)[C@H](C(=O)NCc1ccccc1C)C3 [Compound C127, (2S,5S)-5-{(2S,3S)-2-[2-(2-Fluoro-ethoxy)-acetylamino]-3-methyl-pentanoylamino}-4-oxo-1,2,4,5,6,7-hexahydro-azepino[3,2,1-hi]indole-2-carboxylic acid 2-methyl-benzylamide]",> 5
13,"CC[C@H](C)[C@H](NC(=O)COCCF)C(=O)N[C@H]1CCc2cccc3c2N(C1=O)[C@H](C(=O)NCc1cccc(C)c1)C3 [Compound C128, (2S,5S)-5-{(2S,3S)-2-[2-(2-Fluoro-ethoxy)-acetylamino]-3-methyl-pentanoylamino}-4-oxo-1,2,4,5,6,7-hexahydro-azepino[3,2,1-hi]indole-2-carboxylic acid 3-methyl-benzylamide]",> 5
14,"CC[C@H](C)[C@H](NC(=O)COCCF)C(=O)N[C@H]1CCc2cccc3c2N(C1=O)[C@H](C(=O)NCc1ccc(C)cc1)C3 [Compound C129, (2S,5S)-5-{(2S,3S)-2-[2-(2-Fluoro-ethoxy)-acetylamino]-3-methyl-pentanoylamino}-4-oxo-1,2,4,5,6,7-hexahydro-azepino[3,2,1-hi]indole-2-carboxylic acid 4-methyl-benzylamide]",> 5

# Results, then the compound that gave them:
row,IC50 [µM],SMILES
1,0.001 to 0.3,"CC(=O)N[C@H](C(=O)N[C@H]1COc2cccc3c2N(C1=O)[C@H](C(=O)NCc1c[nH]nn1)C3)C(C)C [Compound C101, (1S,8S)-8-((S)-2-Acetylamino-3-methyl-butyrylamino)-9-oxo-1,2,8,9-tetrahydro-7H-6-oxa-9a-aza-benzo[cd]azulene-1-carboxylic acid (1H-[1,2,3]triazol-4-ylmethyl)-amide]"
2,> 5,"CC[C@H](C)[C@H](NC(=O)COCCF)C(=O)N[C@H]1CCc2cccc3c2N(C1=O)[C@H](C(=O)NCc1ccco1)C3 [Compound C105, (2S,5S)-5-{(2S,3S)-2-[2-(2-Fluoro-ethoxy)-acetylamino]-3-methyl-pentanoylamino}-4-oxo-1,2,4,5,6,7-hexahydro-azepino[3,2,1-hi]indole-2-carboxylic acid (furan-2-ylmethyl)-amide]"
3,> 5,"CC[C@H](C)[C@H](NC(=O)COCCF)C(=O)N[C@H]1CCc2cccc3c2N(C1=O)[C@H](C(=O)NCc1cc[nH]c1)C3 [Compound C107, (2S,5S)-5-{(2S,3S)-2-[2-(2-Fluoro-ethoxy)-acetylamino]-3-methyl-pentanoylamino}-4-oxo-1,2,4,5,6,7-hexahydro-azepino[3,2,1-hi]indole-2-carboxylic acid (1H-pyrrol-3-ylmethyl)-amide]"
4,> 5,CC[C@H](C)[C@H](NC(=O)COCCF)C(=O)N[C@H]1CCc2cccc3c2N(C1=O)[C@H](C(=O)NCc1ccsc1)C3 [Compound C109]
5,> 5,CC[C@H](C)[C@H](NC(=O)COCCF)C(=O)N[C@H]1CCc2cccc3c2N(C1=O)[C@H](C(=O)NCc1cn[nH]c1)C3 [Compound C116]
6,> 5,"CC[C@H](C)[C@H](NC(=O)COCCF)C(=O)N[C@H]1CCc2cccc3c2N(C1=O)[C@H](C(=O)NCc1cnoc1)C3 [Compound C117, (2S,5S)-5-{(2S,3S)-2-[2-(2-Fluoro-ethoxy)-acetylamino]-3-methyl-pentanoylamino}-4-oxo-1,2,4,5,6,7-hexahydro-azepino[3,2,1-hi]indole-2-carboxylic acid (isoxazol-4-ylmethyl)-amide]"
7,> 5,"CC[C@H](C)[C@H](NC(=O)COCCF)C(=O)N[C@H]1CCc2cccc3c2N(C1=O)[C@H](C(=O)NCCc1cnn[nH]1)C3 [Compound C120, (2S,5S)-5-{(2S,3S)-2-[2-(2-Fluoro-ethoxy)-acetylamino]-3-methyl-pentanoylamino}-4-oxo-1,2,4,5,6,7-hexahydro-azepino[3,2,1-hi]indole-2-carboxylic acid [2-(3H-[1,2,3]triazol-4-yl)-ethyl]-amide]"
8,> 5,"CC[C@H](C)[C@H](NC(=O)COCCF)C(=O)N[C@H]1CCc2cccc3c2N(C1=O)[C@H](C(=O)NCc1cccnc1)C3 [Compound C122, (2S,5S)-5-{(2S,3S)-2-[2-(2-Fluoro-ethoxy)-acetylamino]-3-methyl-pentanoylamino}-4-oxo-1,2,4,5,6,7-hexahydro-azepino[3,2,1-hi]indole-2-carboxylic acid (pyridin-3-ylmethyl)-amide]"
